Data: US10968181B2, “NRF2 activator” (BIOGEN MA INC., priority 2016, dated 2021)

Key:
Nrf2 target genes [1] = assay: Nrf2 target gene expression (qRT-PCR) in tissues of wild type and Nrf2−/− mice; type: in vivo
Method: All procedures involving animals were performed in accordance with standards established in the Guide for the Care and Use of Laboratory Animals as adopted by the U.S. National Institutes of Health. All animal protocols were approved by the Biogen Institutional Animal Care and Use Committee, which is accredited by the Association for Assessment and Accreditation of Laboratory Animal Care International. Female 6-10 week-old wild type C57BL/6 and Nrf2−/− mice (Itoh et al, 1997; maintained at Jackson Labs, Bar Harbor, Me.) were maintained on a 12-hour light/dark cycle and given access to food and water ad libitum.
Compound 12-Ent1 (25 mg/kg) was administered as a single, oral dose in a vehicle of Solutol HS-15/polyethylene glycol/ethanol/water (10/10/10/70) to C57BL/6 (wt) and Nrf2−/− mice. Brain, jejunum, kidney and spleen were collected at 2 or 6 hours after dosing and snap frozen for RNA analysis of Nrf2 target genes.
For RNA preparation, frozen tissues were placed in 2 mL RNAse-free 96-well blocks with 1.5 ml QIAzol Lysis Reagent (QIAgen) and a 3.2 mm stainless steel bead (BioSpec Products, Bartlesville, Okla.). Tissues were disrupted for four cycles of 45 seconds in a Mini-Beadbeater (Biospec Products). RNA was extracted in chloroform and the aqueous phase was mixed with an equal volume of 70% ethanol. Extracted RNA was applied to RNeasy 96 plates and purified by the spin method according to the manufacturer's protocol (RNeasy 96 Universal Tissue Protocol, QIAgen, Hilden Germany).
qRT-PCR was performed from total mRNA isolated from tissues and reverse-transcribed into cDNA according to manufacturer protocols (Life Technologies, Carlsbad, Calif.). 20× Taqman target gene mouse primer/probe sets (see table below) were mixed with cDNA and 2× Taqman Universal Master Mix to a final volume of 20 uL. All final reactions contained 100 ng of cDNA, 900 nM of each primer, and 250 nM TaqMan® probes and were cycled on a QuantStudio™ 12K Flex system (Life Technologies). All samples were measured in triplicate using beta actin as a normalizing gene. Final analysis was performed using the comparative CT method to calculate fold changes and samples were normalized relative to wild type vehicle control at each time point.

human astrocytes [2] = assay: Glutathione assay in cultured human astrocytes; type: cell-based; settings: 20-hr exposure, FIG. 2
Method: (§1) Human astrocytes from ScienCell (cat #1820) were grown in astrocyte medium per supplier's instructions. Cells cultured for no more than two passages were plated in poly-D-lysine coated 96-well plates at 40,000 cells per well for gene transcription experiments and 20,000 cell per well for glutathione and cytoprotection assays.
Intracellular glutathione was measured after a 20-hr exposure to test compounds by a two-step process. First, cells were lysed and luciferin quantitatively generated from substrate, catalyzed by glutathione-S-transferase in the presence of analyte glutathione. Then luciferin was assayed using stabilized luciferase to produce a luminescent signal proportional to the concentration of glutathione (Promega GSH-Glo, cat #V6912).

γ-globin gene = γ-globin gene induction in spleen of Townes mice; type: in vivo, Townes SCD mouse; settings: Townes SS mice, oral single dose 10, 25 or 50 mg/kg or two doses of 25 mg/kg; at least at the 24 hour time point; FIGS. 9A-9D and 11
Description: (§2) All animal experiments conformed to the guidance issued by the Biogen Institutional Animal Care and Use Committee and are described in approved protocols. The SCD mouse strain used in the in vivo studies is the Townes SCD mouse [Wu L C, Sun C W, Ryan™, Pawlik K M, Ren J, Townes™. Correction of sickle cell disease by homologous recombination in embryonic stem cells. Blood. 2006, 108(4):1183-8]. […] These mice harboring the sickle cell mutations in the hemoglobin β-globins chain show the presence of sickle cell disease characterized by abnormally low hemoglobin, circulating sickle shaped erythrocytes, varying degrees of damage of internal organs such as spleen, liver, and kidney. Male and female Townes SS mice aged 8 to 12 weeks were used for studies described here. […]
(§3) Frozen spleens were placed at room temperature. […] Extracted RNA was then quantitated using a Nanodrop and 1 μg of total RNA was converted to cDNA using VILO Mastermix kit according to manufacturer's protocol.
(§4) cDNA prepared from RNA isolated from tissue samples was used to determine gene expression levels of using Taqman based real time PCR (Life Technologies, ThermoFisher Scientific). […] Results were analyzed using the 7500 software version 2.0.5 and the relative levels of transcripts were measured with GAPDH as the endogenous housekeeping gene control using the 2^−ΔΔCt relative quantification method.

human astrocytes [3] = assay: Cytoprotection of human astrocytes against sodium arsenite; type: cell-based; settings: compound 20 hrs before arsenite, then 22 hrs, FIG. 3
Method: Human astrocytes from ScienCell (cat #1820) were grown in astrocyte medium per supplier's instructions. Cells cultured for no more than two passages were plated in poly-D-lysine coated 96-well plates at 40,000 cells per well for gene transcription experiments and 20,000 cell per well for glutathione and cytoprotection assays. Astrocytes were treated for 20 hrs with test compounds, then the medium was removed and replaced with serum- and supplement-free growth medium with and without 25 μM sodium arsenite. After 22 hrs., cells were washed with PBS, fixed with 4% paraformaldehyde/4% sucrose in PBS, stained with 4′,6-Diamidino-2-phenylindole dihydrochloride (DAPI) and counted by quantitative fluorescence microscopy.

NQO-1 gene = NQO-1 gene induction in spleen of Townes mice; type: in vivo, Townes SCD mouse; settings: Townes SS mice, oral single dose 10 or 50 mg/kg or two doses of 25 mg/kg; at least at the 6 hour time point; FIGS. 10A-10C and 12
Description: as §2, §3, §4

HUDEP cells = assay: HbF protein ELISA in cultured HUDEP cells; type: cell-based, human; settings: differentiating HUDEP cells, 72 hours, compared to DMSO; FIG. 8
Method: Human Umbilical Derived Erythroid Cells (HUDEP; from Riken Institute, Japan) were cultured in Stemspan SFEM medium (Stemcell Technologies, Vancouver, Canada) supplemented with erythroid cytokines and growth factors. Compound incubations were performed in HUDEP cells cultured in differentiation media.
Differentiating HUDEP cells were cultured with increasing concentrations of 12-Ent1 or equivalent DMSO concentrations for 72 hours and the levels of HbF protein was measured using a commercially available ELISA specific for human HbF (Bethyl Laboratories, TX) based on manufacturer's protocol.

Nrf2 target genes [4] = assay: Gene expression (RT-PCR) in cultured human astrocytes; type: cell-based; settings: human astrocytes treated 20 hours; compared to 0.03% DMSO vehicle; FIGS. 1A to 1D
Method: as §1
Primary cultures of human spinal cord astrocytes were treated with test compounds for 20 hours. The cells were then rinsed in PBS, lysed, and processed for RNA using Ambion Taqman™ Cells-to-CT kit. The resulting cDNA was stored at −20° C. until analysis by real-time polymerase chain reaction (RT-PCR). The cDNA mixture from Cells-to-CT was diluted 5× before loading into PCR. This yields results similar to using 6 ng of purified cDNA. RT-PCR was performed on Life Technologies QuantStudio platform using OpenArray technique according to manufacturer's protocol using the following Taqman primers: […]
The comparative CT method was used to calculate fold changes using ThermoFisher Cloud software for PCR analysis. Samples were compared to 0.03% DMSO vehicle control.

[5] = wild type vs Nrf2−/− mice, 25 mg/kg oral

For `CC(=O)N1CC[C@@H]2C(C)(C)C(=O)C(C#N)=C[C@@]2(C)C1` (single isomer, unassigned) [Compound 12-Ent1], the “expression of Akr1b8, Nqo1, Hmox1 and Osgin1 in kidney” value (Nrf2 target genes [1]; 25 mg/kg single oral dose, 2 hours and 6 hours after dosing, FIGS. 4A to 4D) was “increases”, the “expression of Akr1b8, Nqo1, Hmox1 and Osgin1 in Jejunum” value (Nrf2 target genes [1]; 25 mg/kg single oral dose, 2 hours and 6 hours after dosing, FIGS. 5A to 5D) was “increases” and the “expression of Nqo1, Hmox1 and Osgin1 in spleen” value (Nrf2 target genes [1]; 25 mg/kg single oral dose, 2 hours and 6 hours after dosing, FIGS. 6A to 6D) was “increases”. The “expression of Nqo1, Hmox1 and Osgin1 in brain” value (Nrf2 target genes [1]; 25 mg/kg single oral dose, 2 hours and 6 hours after dosing, FIGS. 7A to 7D) was “increases”, the “Nrf2 dependence of the gene expression increases in Jejunum” value (Nrf2 target genes [1]; [5]) was “Nrf2-dependent” and the “Nrf2 dependence of the gene expression increases in brain” value (Nrf2 target genes [1]; [5]) was “Nrf2-dependent”. For the same compound, the “Nrf2 dependence of the gene expression increases in kidney” value (Nrf2 target genes [1]; [5]) was “Nrf2-dependent”, the “Nrf2 dependence of the gene expression increases in spleen” value (Nrf2 target genes [1]; [5]) was “Nrf2-dependent” and the intracellular glutathione (human astrocytes [2]) was “increases”. The “human γ-globin gene in spleen” value (γ-globin gene) was “induces”, the “protection from oxidative stress-induced cell death caused by 25 μM sodium arsenite” value (human astrocytes [3]) was “protects cells” and the “NQO-1 gene in spleen” value (NQO-1 gene) was “induces”. The “HbF protein in cultured HUDEP cells” value (HUDEP cells) was “induces” and the “transcription of Nrf2 target genes, including GCLC, HMOX1, OSGIN1 and NQO1” value (Nrf2 target genes [4]) was “induces transcription”.
